Data published in patent publication US6935334B2, “Enhancing therapeutic effectiveness of nitric oxide inhalation” (The General Hospital Corporation, priority 2000, dated 2005).

Test system: hypoxic pulmonary vasoconstriction (HPV) in mice
Assay: Redistribution of pulmonary blood flow (QLPA/QPA) after left mainstem bronchus occlusion (LMBO), murine HPV model
Type: in vivo, mouse
Description: Group 3: endotoxin-treated+L-NIL. SV129/B6F1 wild-type mice (n=5) were injected intraperitoneally with 10 mg/kg E. coli 011B4 endotoxin dissolved in 0.2 mL saline. Three hours after the endotoxin challenge, mice were treated with L-NIL 5 mg/kg intraperitoneally. Studies were performed 22 hours after the endotoxin challenge. In additional SV129/B6F1 mice with (n=5) and without (n=4) a prior challenge of endotoxin (22 hours earlier), the acute response to an intravenous bolus of 5 mg/kg L-NIL administered during LMBO, was studied.
Group 4: prolonged exposure to 4 or 40 ppm NO. Saline-treated SV129 wild-type mice (n=5) and NOS2-deficient mice (n=5) breathed 40 ppm NO in air for 22 hours and were studied 1 hour after discontinuation of NO inhalation. SV129 wild-type mice (n=5) and NOS2-deficient mice (n=5) breathed 40 ppm NO in air for 22 hours after challenge with 10 mg/kg endotoxin intraperitoneally and were studied 1 hour after discontinuation of NO inhalation. Additional NOS2-deficient mice (n=4) breathed 4 ppm of NO in air for 22 hours after challenge with 10 mg/kg endotoxin intraperitoneally and were studied 1 hour after discontinuation of NO inhalation.
Experimental preparation. Mice were anesthetized by intraperitoneal injection of ketamine (0.1 mg/g body weight [bw]). Tracheostomy and arterial catheterization were performed as described previously (Steudel et al., 1997, Circ. Res. 81:34-41). A custom-made endotracheal tube (22G Angiocath; Becton Dickinson Healthcare Systems, Sandy, Utah, USA), combined with a 2 French Fogarty arterial embolization catheter (Baxter Healthcare Corp., Irvine, Calif., USA) was inserted into the trachea, with the balloon tip of the Fogarty catheter initially remaining in the trachea. Volume-controlled ventilation was initiated at a respiratory rate of 110-120 breaths per minute, at FiO2 1.0, a peak inspiratory pressure of 13 cm H2O, and a positive end-expiratory pressure level of 2-3 cm H2O. A right parasternal thoracotomy was performed, and a small-vessel ultrasonic flow probe (1RB; Transonic Instruments, Ithaca, N.Y.) was placed around the right pulmonary artery and fixed in position using a micromanipulator (X-tra Hand; TechniTool, Plymouth, Pa.). A 4-0 silk suture was positioned around the left main pulmonary artery to allow transient vascular occlusion. A pulmonary artery catheter (PE10) was inserted into the main pulmonary artery by direct puncture. In other experiments, a lower thoracic aortic flow probe was placed as reported previously (Steudel et al., supra).
Blood flow and pressure measurements. Mean systemic arterial pressure (PSA), mean pulmonary artery pressure (PPA), and in some studies PLA, were continuously monitored using biomedical amplifiers (Hewlett Packard 8805C, Palo Alto, Calif.; Siemens Sirecust 960, Danvers, Mass.). Mean lower thoracic aortic flow (QLTAF) and right pulmonary artery flow (QRPA) were measured with small vessel flow probes connected to a flowmeter (T106; Transonic Instruments). In some experiments, left ventricular end-diastolic pressure was measured with a 1.4 Fr. Millar catheter. The catheter was advanced through the right carotid artery into the left ventricle. […] All monitoring equipment was calibrated before each experiment.
Differential measurement of left and right pulmonary artery flow. To assess the contribution of QRPA and left pulmonary artery flow (QLPA) to total pulmonary artery flow (QPA), transient occlusion (90 seconds) of the left pulmonary artery (QLPA) was performed. QRPA during acute left pulmonary artery occlusion was considered to be QPA (i.e., cardiac output) and correlated closely (r2=0.88; y=0.95x+0.38; n=9) with QLTAF. QLPA was calculated as the difference between QRPA during left pulmonary artery occlusion (QPA) and QRPA with a patent left pulmonary artery (QLPA=QPA−QRPA). Absolute values of respective flows were recorded, and the fractional distribution of flow to the right and left lungs (QRPA/QPA and QLPA/QPA) was calculated. […]

## [N]=O [NO, Nitric oxide]
endotoxin-treated NOS2-deficient mice after prolonged inhalation of 40 ppm NO for 22 hours
  reduction of QLPA/QPA after LMBO: 20±7%
endotoxin-treated NOS2-deficient mice breathing 4 ppm NO for 22 hours
  reduction of QLPA/QPA after LMBO: 62±2%
endotoxin-treated wild-type mice breathing 40 ppm NO for 22 hours
  reduction of QLPA/QPA after LMBO: 19±10%
saline-treated NOS2-deficient mice after breathing 40 ppm NO for 22 hours, measured 1 hour later
  reduction of QLPA/QPA after LMBO: 50±11%
saline-treated wild-type mice after breathing 40 ppm NO for 22 hours, measured 1 hour later
  reduction of QLPA/QPA after LMBO: 51±10%
